Test results: patent publication US20090035385A1, “COMPOSITIONS INCLUDING IRON” (DRUGTECH CORPORATION, priority 2004, published 2009)
Where two headings read alike, the source gives them in different places.

How the values were obtained:
[1] = system: gastrointestinal iron absorption; conditions: cited from earlier work
[2] = daily administration, 50 mg of elemental iron; based on generally accepted iron absorption rates
[3] = intravenous administration of the promoter
[4] = oral administration of the promoter

Row | Compound | effect on gastrointestinal iron absorption [1, 3] | effect on gastrointestinal iron absorption [1, 4] | time required to supply 450 mg of iron for RBC regeneration and 300 mg of iron to replenish iron stores [2]
1 | O=C1O[C@H]([C@@H](O)CO)C(O)=C1O [Ascorbic acid, ascorbic acid] | not increased | enhance gastrointestinal iron absorption | 
2 | O=C(O)CCC(=O)O [Succinic acid, succinic acid] | enhance gastrointestinal iron absorption | enhance gastrointestinal iron absorption | 
3 | ferrous sulfate |  |  | approximately 9 months
